Measured values published in patent US9725518B2, “Antibodies that bind to Jagged 1” (Cancer Research Technology Limited, priority 2013, dated 2017).

Experiments:
[1] = tested on: murine Hes1 (N1 signalling mediated via mJ1); assay: Hes1 qPCR in B16F10 cells stably expressing murine J1; type: cell-based, mouse; details: mAb 10 μg/ml, DBZ 100 nM, 7 days
Protocol: FIG. 10. […] (A) Mouse melanoma B16F10 cells stably expressing murine J1 were cultured with 10 μg/ml of each J1 mAb, or an IgG1 control antibody, for 7 days with fresh mAb supplemented every 2 days. The γ-secretase inhibitor DBZ (100 nM) was used as a control for Notch inhibition. Cells were harvested, total RNA extracted and cDNA was synthesised. Murine Hes1 expression levels were detected by real-time PCR normalised against GAPDH. […] (B) Human breast cancer (MDA-MB-231) and primary endothelial cells (HUVEC) were cultured over plates coated with recombinant rat Jagged1 (rrJag1-Fc) or a control protein (mIgG1) in the presence of 10 μg/ml of J1 mAbs or isotype control Ab. 24 hours later cells were harvested, total RNA extracted and cDNA was synthesised. Expression of the human Notch-target genes HES1 and HEY2 was analysed by real-time PCR and β2-microglobulin was used as control gene. Results from one representative experiment are shown. […]
Total RNA from cell cultures/spheroids was isolated using RNeasy mini kit (Qiagen, UK) according to the manufacturer's instructions. […] Quantitative PCR (qPCR) analysis was performed in triplicate using the SYBR GreenER qPCR SuperMix Universal (Invitrogen) and Chromo4 fluorescence detector (MJ Research, USA). Relative quantification was done using the ΔΔCt method normalizing to β2-microglobulin gene or murine β-Actin expression. […]

[2] = tested on: J1-induced Notch signalling; assay: Luciferase assay, LS174T RBPJ reporter stimulated with J1 protein; type: cell-based, human
Protocol: FIG. 9. […] (A) The colorectal cancer cell line LS174T expressing luciferase under the control of Notch co-factor RBPJ was stimulated with mammalian cell-expressed soluble J1 proteins (NE3-Fc and NE12-Fc) or a control protein in the presence of J1 mAbs (10 μg/ml), and luciferase activity was measured. […] (C) Breast cancer MDA-MB-231 cells were cultured with J1 mAbs. The expression level of the Notch target gene HES1 was measured by qPCR using β2m as the control gene. In all experiments the γ-secretase inhibitor DBZ was used as a positive control for pan Notch inhibition and a control mAb (IgG2b or IgG1) or no treatment (NT) were negative controls.
FIG. 20. Inhibition of human Jagged 1/Notch signalling by humanised and de-immunised J1-mAbs in vitro. The colorectal cancer cell line LS174T expressing luciferase under the control of Notch co-factor RbPJ was stimulated with mammalian cell-expressed recombinant J1 protein (NE3-Fc protein, right bar for each treatment) or a control protein (left bar) in the presence of J1 mAbs (10 μg/ml), and luciferase activity was measured. The parental murine monoclonal antibody (Mo), Murine IgG1, DMSO and DBZ were used as controls.
Having established that the J1 mAbs were able to block the binding of the J1 ligand to its receptor N1 their effect on the activity of the Notch signalling pathway was investigated. The human colorectal cancer cell line LS174T, stably expressing a luciferase reporter gene under control of Notch co-factor RBPJ, was stimulated with two forms of immobilised J1 protein: N-terminus to EGF3 and N-terminus to EGF12. […] Importantly, the best two J1 mAbs (J1-65D and J1-183D) were also tested against other Notch ligands in order to verify ligand specificity.
Prior to experiment, clear bottom 96-well plates (CELLSTAR) wells were coated with either J1-ECD fragments (NE3-Fc and NE12-Fc), other Notch-ligands (J2 or DLL4; both from R&D) or control protein (mlgG2b) at the concentration of 5 μg/ml in 0.1% BSA-PBS (overnight incubation at 4° C.). LS174T colorectal cancer cells, expressing the luciferase gene under control of the Notch cofactor RbPJ, were then plated (4×10^4 cells/well) in the presence of different mAbs (10 μg/ml) or DBZ (100 nM). Luciferase activity was then quantified 24 hours later using the Bright-Glo Luciferase Assay System (Promega).

## C[C@H](NC(=O)Cc1cc(F)cc(F)c1)C(=O)N[C@@H]1C(=O)N(C)c2ccccc2-c2ccccc21 [DBZ, reference compound]
[1]
  repression of murine Hes1 expression: Repression of Hes1 expression was observed
[2]; NE3-Fc and NE12-Fc, mAbs 10 μg/ml, DBZ 100 nM
  inhibition of J1-induced luciferase activity: blocked
[2]; humanised/chimeric mAbs 10 μg/ml, NE3-Fc, DBZ control
  inhibition of J1-induced luciferase activity: blocked
